Data on four molecules can be found in patent US6358967B1, “Ergoline amine derivatives with blood pressure lowering effect” (priority 1998, dated 2002).

The subject of one series is normotensive Wistar rats. In words: Invasive blood pressure measurement in anesthetized rats, i.v. administration. In kind it is in vivo, rat. As to conditions: 0.5 mg/kg i.v., Table 1.1; for Effect pressure/duration: duration: assessment class of duration; for Effect pressure/duration: pressure: assessment class of pressure fall; for Heart rate: change shown as arrow; for Heart rate / Duration: Wistar rats; for Duration: duration of blood pressure effect; for Diastol. pressure / Mean pressure / Systol. pressure: effect (fall) on arterial blood pressure, anesthetized Wistar rats. As for the experimental part: Male Wistar rats with a body weight (BW) of 300-450 g were used as experimental animals. The rats are anesthetized immediately before the experiment with 50 mg/kg pentobarbital Na intraperitoneally (i.p.) or 70 mg/kg inactin i.v. PE tubes are tied into the carotid artery and femoral vein.
(§1) To maintain the blood pressure and to prevent formation of thrombi in the PE tubes of the blood vessels, each hour 2.5 ml of heparinized 0.9% strength NaCl solution are infused through the femoral vein and 1.2 ml through the carotid artery.
The arterial blood pressure is measured invasively using a PONEMAH hemodynamic analyzer (HSE, March, Germany). Via the tube in the carotid artery, the arterial blood pressure is mechanoelectrically converted in a Statham transducer (ISOTEC), amplified in a Plugsys (DBA module, type 660), digitized in an A/D converter and input into the PC memory over defined time intervals. The values in the memory are then treated with an adapted algorithm in order to establish the blood pressure parameters to be calculated for heart rate, systolic, diastolic and mean blood pressure.
(§2) The ergoline derivatives are administered i.v. through the femoral vein as 5 percent EtOH/NaCl (0.9%) solution, 1 ml/kg in a dosage of 0.5 mg/kg test substance.

For series [1], the system named is normotensive Wistar rats after pretreatment with Ecolid. In words: Blood pressure testing after blockade of autonomic nerve tracts with Ecolid. In kind it is in vivo, rat. As to conditions: Table 2; for Effect pressure/duration: duration: assessment class of duration; for Effect pressure/duration: duration / Effect pressure/duration: pressure: after Ecolid; for Effect pressure/duration: duration / Effect pressure/duration: pressure / Heart rate / Duration: 0.5 mg/kg i.v.; for Effect pressure/duration: pressure: assessment class of pressure fall; for Heart rate: change shown as arrow; for Heart rate / Duration: rats pretreated with Ecolid; for Diastol. pressure / Mean pressure / Systol. pressure: effect (fall) on arterial blood pressure, Wistar rats pretreated with Ecolid 0.5 mg/kg i.v., test substance 0.5 mg/kg i.v.
Description: Ecolid is a ganglionic blocker which competitively blocks the postsynaptic cholinergic (nicotinergic) receptors in the autonomic ganglia. This interrupts neurotransmission in the ganglia in both the para-sympathetic and sympathetic regions of the autonomic nervous system. The consequence thereof is, inter alia, a fall in blood pressure. It is possible in this way to differentiate central and peripheral (i.e. direct points of action on the smooth muscles) effects.
The experimental animals used were male Wistar rats with a BW of 300-450 g. The rats are anesthetized immediately before the experiment with 70 mg/kg inactin i.v. PE tubes are tied into the carotid artery and femoral vein.
as §1
Before testing the ergoline derivatives, the experimental animals were treated with Ecolid (dose: 0.5 mg/kg, i.v.).
as §2
The time stated in the table corresponds to the period between administration of Ecolid and injection of the test substances.

For the molecule `CN1C[C@H](CN2CCC(=O)NC2=O)C[C@@H]2c3cccc4[nH]cc(c34)C[C@H]21` [Dihydro-1-[[6-methyl-ergolin-8b-yl]-methyl]2,4-(1H, 3H)-pyrimidinedione, reference compound], in the series with normotensive Wistar rats, the “Effect pressure/duration: duration” value is “↓ (up to 10 min)”, the “Effect pressure/duration: pressure” value was “↓↓↓ (>30%)”, the Heart rate entry was “→” and the Duration result is reported as “ca 10 min”. In the series on normotensive Wistar rats, this molecule registered a Diastol. pressure of 75.9%, a Mean pressure of 72.3% and a Systol. pressure of 70.9%. For the same molecule, in series [1], the “Effect pressure/duration: duration” value was “→/→ (no effect to 5%)”, the “Effect pressure/duration: pressure” value is recorded as “→/→ (no effect to 5%)”, the Heart rate entry was “→” and the Diastol. pressure is on record as 0%. In series [1], the Mean pressure is 0%, the “Systol. pressure” value came out at 0% and the Duration is 0 min.

On to `CN1CC(CNC(=O)C2CCC(C(=O)NCc3cccc(CN)c3)CC2)CC2c3cccc4[nH]cc(c34)CC21.O=C(O)C(F)(F)F.O=C(O)C(F)(F)F` (mixture of isomers) [Substance 9703131], for which, in the series with normotensive Wistar rats, the “Effect pressure/duration: duration” value is on record as “↓↓↓/↓↓↓ (>30 min)”, the “Effect pressure/duration: pressure” value was “↓↓↓/↓↓↓ (>30%)”, the Heart rate entry is “→” and the Duration is given as above 240 min. In addition, in the series with normotensive Wistar rats, the Diastol. pressure stood at 55.2%, the Mean pressure is recorded as 51.6% and the Systol. pressure turned out to be 47.5%. Also, in series [1], the “Effect pressure/duration: duration” value is recorded as “↓↓↓/↓↓↓ (> 30 min)”, the “Effect pressure/duration: pressure” value is given as “↓↓↓/↓↓↓ (> 30%)”, the Heart rate entry is “→” and the Diastol. pressure was 40.4%. Besides, in series [1], the Mean pressure was determined as 32.4%, the “Systol. pressure” value was found to be 32.9% and the Duration was above 60 min.

As to `CN1CC(CNC(=O)c2ccc(C(=O)NCc3cccc(CN)c3)cc2)CC2c3cccc4[nH]cc(c34)CC21.O=C(O)C(F)(F)F.O=C(O)C(F)(F)F` (stereo not drawn) [Substance 9703126], in the series on normotensive Wistar rats, the “Effect pressure/duration: duration” value is given as “↓↓↓/↓↓↓ (>30 min)”, the “Effect pressure/duration: pressure” value is reported as “↓↓↓/↓↓↓ (>30%)”, the Heart rate result is given as “→” and the Duration was above 60 min. Moreover, in the series with normotensive Wistar rats, the Diastol. pressure is listed as 63.0%, the Mean pressure was found to be 60.0% and the Systol. pressure was determined as 55.0%. Besides, in series [1], the “Effect pressure/duration: duration” value is “↓↓↓/↓↓↓ (> 30 min)”, the “Effect pressure/duration: pressure” value is reported as “↓↓↓/↓↓↓ (> 30%)”, the Heart rate entry was “→” and the Diastol. pressure is 48.7%. In series [1], the Mean pressure was 43.7%, the “Systol. pressure” value came to 36.4% and the Duration is listed as above 120 min.

With `C[N+](C)(C)CC[N+]1(C)Cc2c(Cl)c(Cl)c(Cl)c(Cl)c2C1.[Cl-].[Cl-]` [Ecolid, reference compound], in series [1], the “Effect pressure/duration: duration” value is on record as “↓↓↓/↓↓↓ (> 30 min)”, the “Effect pressure/duration: pressure” value was “↓↓↓/↓↓↓ (> 30%)”, the Heart rate result is “→” and the Diastol. pressure was 54.7%. In addition, in series [1], the Mean pressure is reported as 50.4% and the “Systol. pressure” value was 52.6%.
